# In article PMC11279551, “Pharmacokinetics and Enterohepatic Circulation of 2-(Quinoline-8-carboxamido)benzoic Acid (2-QBA) in Mice” (Pharmaceutics, 2024):
# Key:
# [1] = PO 6.25~50 mg/kg; cited from earlier work
# [2] = Intestinal permeability in Ussing chamber; assay type: in vitro ADME, mice; settings: mouse, pH 7.4; range over intestinal segments, n = 3; read-out: permeability of marker compounds
# Experimental: The small intestines were isolated from fasted mice under isoflurane anesthesia (1–3% with oxygen gas flow) and dissected into three parts, the jejunum, upper ileum, and lower ileum. […] The intestinal permeability of 2-QBA was assessed by adding 0.5 mL of HBSS containing 20 μM of 2-QBA on the donor side and 0.5 mL of fresh HBSS on the receiver side. Then, a 100 μL aliquot was withdrawn from the receiver side every 30 min for 2 h and an equal volume of pre-warmed fresh HBSS was added to replenish the lost volume. To analyze the 2-QBA, 100 μL aliquots were mixed with 4 volumes of IS solution (1 ng/mL berberine in acetonitrile). The mixture was vigorously vortexed for 5 min and then centrifuged at 13,000× g for 5 min. The supernatant was transferred to autosampler vials. Subsequently, a 3 μL aliquot was injected into the LC-MS/MS system.
Papp [2],Structure (SMILES),time within which multiple peaks appeared [1]
,O=c1c(-c2ccc(O)cc2)coc2cc(O)cc(O)c12 [genistein],≤ 6 h
10 to 22.5 ×10⁻⁶ cm/s,"CC(C)NCC(O)COc1cccc2ccccc12 (centres unmarked) [propranolol, reference compound]",
